Assays:
Experiment in all cases: Kinase inhibitory activity, full kinase panel
Assay type in all cases: biochemical
Settings in all cases: single concentration of 1 μM, read-out: %Inhibitory ability
MAP4K2 = MAP4K2 (Homo sapiens, UniProt Q12851)
Procedure: (§1) In order to measure inhibitory activity (% inhibitory ability) against a protein kinase with respect to the compound of the present invention, a biochemical assay was performed in a full kinase panel shown in the following Table 1. As an experimental compound, the (S)-5-((3-fluorophenyl)ethynyl)-N-(piperidin-3-yl)-3-ureidothiophene-2-carboxamide synthesized in Example 24 was used.

EGFR(T790M) = EGFR(T790M) (Homo sapiens, UniProt P00533, T790M)
Procedure: as §1

YANK1 = YANK1 (Homo sapiens, UniProt Q8WU08)
Procedure: as §1

YANK2 = YANK2 (Homo sapiens, UniProt Q9NY57)
Chain of YANK2 (Q9NY57 whole entry, species assumed): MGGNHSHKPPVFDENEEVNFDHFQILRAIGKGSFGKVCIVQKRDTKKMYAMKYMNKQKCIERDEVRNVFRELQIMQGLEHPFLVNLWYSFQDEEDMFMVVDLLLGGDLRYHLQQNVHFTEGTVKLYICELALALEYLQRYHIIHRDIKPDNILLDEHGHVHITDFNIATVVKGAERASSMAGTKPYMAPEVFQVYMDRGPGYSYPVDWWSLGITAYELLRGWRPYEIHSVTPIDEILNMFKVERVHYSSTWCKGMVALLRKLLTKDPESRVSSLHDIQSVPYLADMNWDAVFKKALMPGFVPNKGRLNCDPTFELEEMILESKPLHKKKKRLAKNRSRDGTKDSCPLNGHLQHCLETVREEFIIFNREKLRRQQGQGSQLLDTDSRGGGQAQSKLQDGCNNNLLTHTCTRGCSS
Procedure: as §1

MEK1 = MEK1 (Homo sapiens, UniProt Q02750)
Procedure: as §1

TRKB = TRKB (Homo sapiens, UniProt Q16620)
Procedure: as §1

LOK = LOK (Homo sapiens, UniProt O94804)
Procedure: as §1

VEGFR2 = VEGFR2 (Homo sapiens, UniProt P35968)
Procedure: as §1

TNIK = TNIK (Homo sapiens, UniProt Q9UKE5)
Procedure: as §1

FGR = FGR (Homo sapiens, UniProt P09769)
Procedure: as §1

MERTK = MERTK (Homo sapiens, UniProt Q12866)
Procedure: as §1

MARK2 = MARK2 (Homo sapiens, UniProt Q7KZI7)
Chain of MARK2 (Q7KZI7 whole entry, species assumed): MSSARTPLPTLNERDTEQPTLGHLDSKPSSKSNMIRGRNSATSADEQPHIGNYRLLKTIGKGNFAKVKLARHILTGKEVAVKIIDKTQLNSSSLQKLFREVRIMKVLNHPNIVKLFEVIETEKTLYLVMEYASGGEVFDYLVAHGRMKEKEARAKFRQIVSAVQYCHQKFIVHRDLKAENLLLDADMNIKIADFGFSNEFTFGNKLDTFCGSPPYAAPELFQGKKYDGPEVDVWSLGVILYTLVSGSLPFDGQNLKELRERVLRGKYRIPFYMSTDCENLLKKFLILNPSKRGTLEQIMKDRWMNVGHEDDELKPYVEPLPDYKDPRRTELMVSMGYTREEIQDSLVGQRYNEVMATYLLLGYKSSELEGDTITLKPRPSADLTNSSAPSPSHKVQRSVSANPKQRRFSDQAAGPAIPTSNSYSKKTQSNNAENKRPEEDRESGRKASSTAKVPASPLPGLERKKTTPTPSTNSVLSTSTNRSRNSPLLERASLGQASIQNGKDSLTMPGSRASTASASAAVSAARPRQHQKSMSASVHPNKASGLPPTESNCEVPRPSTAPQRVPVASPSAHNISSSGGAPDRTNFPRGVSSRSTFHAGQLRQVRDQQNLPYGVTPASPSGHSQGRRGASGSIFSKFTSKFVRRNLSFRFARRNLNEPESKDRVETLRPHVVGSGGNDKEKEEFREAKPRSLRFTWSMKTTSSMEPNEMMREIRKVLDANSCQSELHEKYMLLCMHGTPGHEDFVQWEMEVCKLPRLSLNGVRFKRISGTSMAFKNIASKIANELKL
Procedure: as §1

AURKB = AURKB (Homo sapiens, UniProt Q96GD4)
Procedure: as §1

BIKE = BIKE (Homo sapiens, UniProt Q9NSY1)
Procedure: as §1

FLT3 = FLT3 (Homo sapiens, UniProt P36888)
Procedure: as §1

MST4 = MST4 (Homo sapiens, UniProt Q9P289)
Procedure: as §1

FAK = FAK (Homo sapiens, UniProt Q05397)
Procedure: as §1

RIPK4 = RIPK4 (Homo sapiens, UniProt P57078)
Procedure: as §1

MAP4K4 = MAP4K4 (Homo sapiens, UniProt O95819)
Chain of MAP4K4 (O95819 whole entry, species assumed): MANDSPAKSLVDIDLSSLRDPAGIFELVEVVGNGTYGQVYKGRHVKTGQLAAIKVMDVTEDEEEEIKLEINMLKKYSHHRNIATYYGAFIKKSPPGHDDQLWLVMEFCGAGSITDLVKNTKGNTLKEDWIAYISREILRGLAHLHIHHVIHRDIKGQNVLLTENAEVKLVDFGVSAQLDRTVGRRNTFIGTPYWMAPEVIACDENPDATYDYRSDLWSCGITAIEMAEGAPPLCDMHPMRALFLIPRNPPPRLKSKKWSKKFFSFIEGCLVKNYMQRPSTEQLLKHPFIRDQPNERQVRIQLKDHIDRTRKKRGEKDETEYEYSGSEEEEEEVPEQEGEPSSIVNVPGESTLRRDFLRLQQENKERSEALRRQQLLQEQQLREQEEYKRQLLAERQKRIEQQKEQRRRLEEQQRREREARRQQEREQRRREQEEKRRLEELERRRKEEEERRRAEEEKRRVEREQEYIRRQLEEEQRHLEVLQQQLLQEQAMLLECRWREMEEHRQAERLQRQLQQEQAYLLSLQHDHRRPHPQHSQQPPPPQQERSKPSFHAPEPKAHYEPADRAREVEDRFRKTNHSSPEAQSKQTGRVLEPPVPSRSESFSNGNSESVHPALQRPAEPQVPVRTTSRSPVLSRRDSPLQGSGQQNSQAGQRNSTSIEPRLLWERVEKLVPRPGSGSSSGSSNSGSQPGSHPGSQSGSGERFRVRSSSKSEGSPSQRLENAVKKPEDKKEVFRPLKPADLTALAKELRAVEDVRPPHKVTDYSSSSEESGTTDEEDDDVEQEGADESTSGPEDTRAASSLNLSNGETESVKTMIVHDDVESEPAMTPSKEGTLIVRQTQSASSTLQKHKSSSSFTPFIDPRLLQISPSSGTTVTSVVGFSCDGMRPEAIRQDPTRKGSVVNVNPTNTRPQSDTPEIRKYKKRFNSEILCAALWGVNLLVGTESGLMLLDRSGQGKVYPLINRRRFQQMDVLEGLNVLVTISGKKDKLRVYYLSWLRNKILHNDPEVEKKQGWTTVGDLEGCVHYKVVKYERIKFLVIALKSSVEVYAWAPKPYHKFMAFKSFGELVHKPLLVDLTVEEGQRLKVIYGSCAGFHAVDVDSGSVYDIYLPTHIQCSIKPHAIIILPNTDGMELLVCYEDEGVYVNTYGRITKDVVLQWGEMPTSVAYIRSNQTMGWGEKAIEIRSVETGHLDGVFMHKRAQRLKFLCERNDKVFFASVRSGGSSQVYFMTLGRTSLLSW
Procedure: as §1

DAPK1 = DAPK1 (Homo sapiens, UniProt P53355)
Procedure: as §1

CHEK1 = CHEK1 (Homo sapiens, UniProt O14757)
Chain of CHEK1 (O14757 whole entry, species assumed): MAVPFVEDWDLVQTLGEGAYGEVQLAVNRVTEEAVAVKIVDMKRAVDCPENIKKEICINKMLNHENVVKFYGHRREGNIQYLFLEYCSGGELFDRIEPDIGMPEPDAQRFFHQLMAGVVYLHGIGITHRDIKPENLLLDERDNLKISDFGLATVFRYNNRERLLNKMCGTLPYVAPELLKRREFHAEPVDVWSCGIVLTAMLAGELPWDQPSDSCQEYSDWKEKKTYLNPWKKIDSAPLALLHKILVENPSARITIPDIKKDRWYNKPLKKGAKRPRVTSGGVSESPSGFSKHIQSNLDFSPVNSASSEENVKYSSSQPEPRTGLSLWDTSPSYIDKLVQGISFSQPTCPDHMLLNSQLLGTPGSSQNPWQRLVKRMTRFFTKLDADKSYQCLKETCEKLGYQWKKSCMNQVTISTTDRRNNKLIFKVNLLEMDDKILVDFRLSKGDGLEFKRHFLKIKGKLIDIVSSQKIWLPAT
Procedure: as §1

MAPKAPK5 = MAPKAPK5 (Homo sapiens, UniProt Q8IW41)
Procedure: as §1

MAP3K2 = MAP3K2 (Homo sapiens, UniProt Q9Y2U5)
Procedure: as §1

MEK5 = MEK5 (Homo sapiens, UniProt Q13163)
Procedure: as §1

CHEK2 = CHEK2 (Homo sapiens, UniProt O96017)
Procedure: as §1

SBK1 = SBK1 (Homo sapiens, UniProt Q52WX2)
Chain of SBK1 (Q52WX2 whole entry): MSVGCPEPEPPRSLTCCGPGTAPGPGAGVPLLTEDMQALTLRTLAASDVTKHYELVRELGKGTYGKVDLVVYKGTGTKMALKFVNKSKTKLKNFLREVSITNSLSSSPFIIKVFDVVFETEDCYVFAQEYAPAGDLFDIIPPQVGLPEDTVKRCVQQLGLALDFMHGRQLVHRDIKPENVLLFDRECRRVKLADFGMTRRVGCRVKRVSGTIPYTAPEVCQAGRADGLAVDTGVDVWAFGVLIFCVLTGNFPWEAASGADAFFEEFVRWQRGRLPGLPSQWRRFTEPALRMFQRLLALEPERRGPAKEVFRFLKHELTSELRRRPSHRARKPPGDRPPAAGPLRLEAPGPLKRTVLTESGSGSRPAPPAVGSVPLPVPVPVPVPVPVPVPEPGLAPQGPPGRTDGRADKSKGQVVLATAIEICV
Procedure: as §1

MAP4K3 = MAP4K3 (Homo sapiens, UniProt Q8IVH8)
Chain of MAP4K3 (Q8IVH8 whole entry, species assumed): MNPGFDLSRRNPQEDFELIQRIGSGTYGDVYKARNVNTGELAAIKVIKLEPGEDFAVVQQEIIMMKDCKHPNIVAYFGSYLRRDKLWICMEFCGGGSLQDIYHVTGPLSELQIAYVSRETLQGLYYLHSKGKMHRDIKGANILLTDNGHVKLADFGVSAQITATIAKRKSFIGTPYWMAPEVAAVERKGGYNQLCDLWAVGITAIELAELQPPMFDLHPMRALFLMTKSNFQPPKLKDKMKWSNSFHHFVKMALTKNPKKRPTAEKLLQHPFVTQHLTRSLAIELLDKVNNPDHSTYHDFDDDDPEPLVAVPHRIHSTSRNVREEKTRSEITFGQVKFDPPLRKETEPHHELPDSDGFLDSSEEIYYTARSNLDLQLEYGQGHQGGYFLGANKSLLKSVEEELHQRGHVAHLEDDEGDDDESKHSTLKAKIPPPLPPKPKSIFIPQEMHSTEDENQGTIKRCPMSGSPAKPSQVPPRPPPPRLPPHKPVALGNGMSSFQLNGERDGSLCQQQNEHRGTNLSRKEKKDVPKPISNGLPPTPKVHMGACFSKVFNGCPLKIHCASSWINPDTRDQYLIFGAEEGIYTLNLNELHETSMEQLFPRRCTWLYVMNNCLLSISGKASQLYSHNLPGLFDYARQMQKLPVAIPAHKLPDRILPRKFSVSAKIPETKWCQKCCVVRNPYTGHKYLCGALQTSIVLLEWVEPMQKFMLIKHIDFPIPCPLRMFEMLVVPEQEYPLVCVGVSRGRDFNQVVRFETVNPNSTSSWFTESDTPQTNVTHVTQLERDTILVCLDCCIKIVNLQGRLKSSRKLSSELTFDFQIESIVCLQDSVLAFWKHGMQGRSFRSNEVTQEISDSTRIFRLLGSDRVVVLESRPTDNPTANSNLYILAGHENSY
Procedure: as §1

PRKG2 = PRKG2 (Homo sapiens, UniProt Q13237)
Procedure: as §1

Chain of MAP4K2 (Q12851 whole entry, species assumed): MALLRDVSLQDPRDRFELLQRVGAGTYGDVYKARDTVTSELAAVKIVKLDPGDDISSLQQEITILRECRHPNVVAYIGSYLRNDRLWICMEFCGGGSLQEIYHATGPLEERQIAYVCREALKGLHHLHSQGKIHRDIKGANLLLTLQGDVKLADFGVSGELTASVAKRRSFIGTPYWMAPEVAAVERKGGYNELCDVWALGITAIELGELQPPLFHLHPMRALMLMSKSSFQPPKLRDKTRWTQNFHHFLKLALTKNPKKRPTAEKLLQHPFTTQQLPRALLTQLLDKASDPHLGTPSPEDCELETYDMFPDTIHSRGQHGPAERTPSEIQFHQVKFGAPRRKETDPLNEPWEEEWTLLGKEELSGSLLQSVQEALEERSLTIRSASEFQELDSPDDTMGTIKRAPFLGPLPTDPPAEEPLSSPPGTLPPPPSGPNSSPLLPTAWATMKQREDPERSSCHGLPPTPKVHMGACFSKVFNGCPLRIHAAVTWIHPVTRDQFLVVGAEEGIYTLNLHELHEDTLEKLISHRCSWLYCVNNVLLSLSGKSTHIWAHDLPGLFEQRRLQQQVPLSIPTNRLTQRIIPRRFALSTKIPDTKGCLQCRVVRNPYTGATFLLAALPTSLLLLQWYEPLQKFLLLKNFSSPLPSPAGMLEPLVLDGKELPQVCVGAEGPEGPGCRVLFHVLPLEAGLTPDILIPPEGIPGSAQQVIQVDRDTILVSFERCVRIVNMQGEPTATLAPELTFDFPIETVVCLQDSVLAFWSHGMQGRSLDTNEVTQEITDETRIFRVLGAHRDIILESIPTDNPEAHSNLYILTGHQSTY

## Cc1ccc(C#Cc2cc(NC(N)=O)c(C(=O)N[C@H]3CCCNC3)s2)cc1 [Example 24, (S)—N-(piperidin-3-yl)-5-(p-tolylethynyl)-3-ureidothiophene-2-carboxamide]
MAP4K2
  inhibition at 1 µM: 92.7%
EGFR(T790M)
  inhibition at 1 µM: 85%
YANK1
  inhibition at 1 µM: 95.5%
YANK2
  inhibition at 1 µM: 76%
MEK1
  inhibition at 1 µM: 96.3%
TRKB
  inhibition at 1 µM: 97.2%
LOK
  inhibition at 1 µM: 71%
VEGFR2
  inhibition at 1 µM: 73%
TNIK
  inhibition at 1 µM: 96.3%
FGR
  inhibition at 1 µM: 94.1%
MERTK
  inhibition at 1 µM: 96.1%
MARK2
  inhibition at 1 µM: 79%
AURKB
  inhibition at 1 µM: 66%
BIKE
  inhibition at 1 µM: 77%
FLT3
  inhibition at 1 µM: 99.6%
MST4
  inhibition at 1 µM: 83%
FAK
  inhibition at 1 µM: 75%
RIPK4
  inhibition at 1 µM: 97.6%
MAP4K4
  inhibition at 1 µM: 91.4%
DAPK1
  inhibition at 1 µM: 94.4%
CHEK1
  inhibition at 1 µM: 96.1%
MAPKAPK5
  inhibition at 1 µM: 82%
MAP3K2
  inhibition at 1 µM: 97.7%
MEK5
  inhibition at 1 µM: 99.9%
CHEK2
  inhibition at 1 µM: 100%
SBK1
  inhibition at 1 µM: 66%
MAP4K3
  inhibition at 1 µM: 69%
PRKG2
  inhibition at 1 µM: 96.6%

Reference: US10442796B2, “2,3,5-substituted thiophene compound as protein kinase inhibitor” (KOREA INSTITUTE OF SCIENCE AND TECHNOLOGY, priority 2016, dated 2019)
